Experimental findings from patent publication US12016834B2, “Small molecule inhibitors of SLC25A1” (GEORGETOWN UNIVERSITY, priority 2017, dated 2024) are described below.

The test system of assay [1] is H1299 cells. Kind of assay: Sphere forming / self-renewal assay. To be noted: for self-renewal: single-cell derived spheres, Rotenone 10 nM, Oligomycin 1 mM, metformin 3 mM (FIG. 3I). It is filed as cell-based, human. As to the method:
Growth of monolayers and sphere cultures. Tumor cell lines were grown as monolayers in complete Dulbecco's Modified Eagle's Media (DMEM, Gibco; supplemented with 10% fetal bovine serum and 1% of 5,000 units/mL of penicillin-streptomycin (pen-strep), Gibco). To generate spheroids, cells were grown in Falcon bacteriological petri dishes coated with 2% poly(2-hydroxyethyl methacrylate) dissolved in 100% ethanol. The growth media was DMEM/F12 (Gibco) supplemented with 20 ng/mL of epidermal growth factor (EGF), 5 ng/mL of fibroblast growth factor, 0.375% 100× N2 supplements (Gibco), and 1% pen-strep. Monolayer cells were dissociated using 0.25% trypsin-edta (Gibco), whereas spheroid cultures were dissociated using StemPro Accutase (Gibco). Patient derived cell lines were grown as described below in the primary lung cultures section.
Self-renewal assays. Tumor cells cultured as spheroids were dissociated and diluted in 2× sphere media containing 1% methyl cellulose, which was previously dissolved in cold DMEM/F12 media. Either 200, 500, or 1000 cells were then plated in each 96 well and were incubated in the presence or absence of drugs, as indicated. The spheres were allowed to form for a period of a week to ten days, at which point they were counted. Six biological replicates were used for quantification of the results.

Assay [2] concerns H1299 cells. Kind of assay: Proliferation / viability in monolayer (2D) cultures. It counts as cell-based, human. Conditions: for anti-proliferative activity in 2D cultures: Rotenone 10 nM, Oligomycin 1 mM, metformin 3 mM (FIG. 3I). As to the method:
(§1) Cellular proliferation and cytotoxicity assays. The proliferative capacity of cells was assessed by plating cells in triplicate at a concentration of 2,000 to 10,000 cells/well in 96 well plates in triplicate, with or without drug treatment for 48 hours. The cells were then washed with 1×PBS and fixed with cold 100% methanol at−20° C. for 20 minutes. Methanol was washed off and the cells were stained with 0.5% crystal violet dissolved in 25% methanol and water at 4° C. for 20 minutes. The staining was washed off using deionized (DI) water and the plate was dried overnight. On the second day, 100 mM sodium citrate in 50% ethanol and 50% water was added to the wells and absorbance at 550 nm was measured and corrected with readings at 405 nm. In other experiments, cell viability was assessed by trypan blue exclusion and visual count of the live cells was performed.

Assay [3] has as its target SLC25A1 (Homo sapiens, UniProt P53007). Nature of the assay: Surface plasmon resonance (SPR) binding to recombinant purified SLC25A1. To be noted: steady state, 1:1 binding model; human protein. As to the method:
Surface Plasmon Resonance (SPR). SPR experiments were performed on a Biacore 4000 instrument at room temperature. The NTA sensorchip surface was activated by injecting 0.5 mM NiCl2 for 1 minute. Histidine-tagged recombinant purified SLC25A1 protein (0.07 mg/ml stock concentration) was used as the ligand to capture on the sensor surface. SLC25A1 was dissolved (1:50 dilution) in PBS-P (20 mM phosphate buffer (pH 7.4), 2.7 mM KCl, 137 mM NaCl and 0.05% surfactant P20) buffer and captured onto spots 2 and 4. SLC25A1 was captured to a level of ˜3000. PBS-P was used as the capture running buffer. Small molecules were used as analytes to flow over the ligand immobilized surface. Spot 3 of all flow cells were used as reference. The calculated theoretical Rmax was ˜30 RU based on a 1:1 interaction. The kinetics experiments were performed in the presence of HBS-P (10 mM HEPES (pH7.4), 150 mM NaCl, and 0.05% surfactant P20). The flow rate of all the solutions was maintained at 30 μL/min. The analyte concentrations were 0 μM, […], 6.25 μM, 12.5 μM, 25 μM, 50 μM, and 100 μM. Analyte concentrations showing signs of aggregation were excluded from the analysis. Data were analyzed by Biacore BiaEvaluation software for 1:1 steady state binding model.

Assay [4] relates to MP1 cells. Nature of the assay: Seahorse OCR and ATP in patient-derived cells. It is filed as cell-based, human. Conditions: monolayer, chronic treatment for several passages (FIG. 6A). As to the method:
Primary lung cancer cultures and GMSC. Surgical samples were minced and digested with dispase (50 U/ml) in DMEM media containing 5% serum for 1 hour. Pleural effusions were centrifuged, washed once in PBS, and then plated. All primary cultures were initially grown on 6-well plates pre-coated with 2% Geltrex (Life Technologies; Carlsbad, CA) and 1% Maxgel (Sigma Aldrich). Maxgel is a humanized matrix, native and non-denatured. The inclusion of Maxgel in the system enhanced the initial attachment of primary tumor cells, partially because Maxgel provides a more natural ECM conformational substrate. The day after plating, the media containing unattached cells was typically transferred to a fresh plate, in most of cases generating new attached cultures. The media (Stem Cell Media) is the DMEM/F12 (Thermo-Fisher #11320-033 basic media) supplemented with the following components: Insulin-Transferrin-Sodium selenite (ITS; 1:1000; Sigma #11884); glutamine (Thermo-Fisher) to 4 mM final concentration; sodium pyruvate (Thermo-Fisher) to 2 mM final concentration; rock inhibitor (Y-27632) 10 micrograms/mL; 2-5% Knock Out Serum Replacement (KNOSR, Thermo-Fisher #10828-028); 0.5% ALBUMAX-(Lipid enriched BSA; Thermo-Fisher #11020-021); N2 Supplement (Thermo-Fisher) 1:250; EGF (5 ng/ml; Peprotech); hFGF (20 ng/ml; Bechman); and IGF-1 (Peprotech; 10-20 ng/ml).
(§2) Seahorse extracellular flux analyzer experiments. Cells derived from spheres or monolayer cultures were dissociated and plated overnight at 12,000 cells/well in DMEM with 10% FBS, 5 mM glucose, 1 mM pyruvate, 2 mM glutamine.
(§3) For the mitochondrial stress test, the media was replaced with DMEM without FBS or bicarbonate, containing 5 mM glucose, 1 mM pyruvate, 2 mM glutamine and placed in a CO2 free incubator at 37° C. for 1 hour, and then transferred to the Xf96 extracellular flux analyzer (Agilent; Santa Clara, CA). The program consisted of 3 measurements of OCR/ECAR before the injection of each drug: oligomycin (0.5 μM final concentration), FCCP (2 μM) and rotenone/antimycin (0.5 μM of each). For the glycolysis stress test, cells were plated overnight as above, and the media was washed twice the following day with DMEM without FBS, bicarbonate, glucose, glutamine or pyruvate, and incubated in this media in a CO2 free incubator with/without drug treatments at 37° C. for 4 hours. There were 3 measurements of OCR/ECAR before each injection: glucose (10 mM final concentration), oligomycin (0.5 […] (50 mM). For the analysis of glutamine oxidation, the protocol was the same as the glucose stress test, but with glutamine being the only compound injected (final concentration 4 mM) and OCR/ECAR measured for 60 minutes. When spheres were analyzed, they were dissociated with StemPro® Accutase® (Thermo Scientific; Waltham, MA) and plated under the same conditions as above as for the monolayers the day before the assay (H1299 spheres), or in stem cell media (See Stem Cell Media) with the wells coated in 15 μL of 2% geltrex diluted in DMEM:F12 (Thermo Scientific). The results were normalized to cell number.

Assay [5] has as its system MP1 cells. Kind of assay: Viability (Crystal Violet) and drug interaction (R index). It is filed as cell-based, human. To be noted: single drug, 5 days, monolayer. As to the method: as §1, with “The proliferative capacity of cells was assessed by plating cells in triplicate at a concentration of 2,000 to 10,000 cells/well in 96 well plates in triplicate, with or without drug treatment for 48 hours.” left out
(§4) Statistical methods for drug interactions. […] Sexp/Sobs=1.0 denotes an additive interaction, while >1.0 denotes a synergistic interaction. R index values approaching 2.0 are indicative of strong synergy.

For assay [6], the system named is MP2 cells. The description is as above. It is filed as cell-based, human. To be noted: single drug, 5 days, monolayer. As to the method: as §1, with “The proliferative capacity of cells was assessed by plating cells in triplicate at a concentration of 2,000 to 10,000 cells/well in 96 well plates in triplicate, with or without drug treatment for 48 hours.” left out
as §4

Assay [7] has as its system MP1 cells. Nature of the assay: Apoptosis by annexin V and PI flow cytometry. It is filed as cell-based, human. To be noted: drug alone. On the procedure:
Flow cytometry. Tumor cells were trypsinized and washed in 1×PBS. The cells were then stained with the antibodies of choice: CD166-PE (Biolegend), CD133-647 (Biolegend), or CD44 (Biolegend), in 1% BAS-PBS. The cell cycles of monolayers or spheres of the cells were analyzed by fixing the cells in cold 75% ethanol. The annexin V (Biolegend) and propidium iodide (Biolegend) experiments were carried out.
A general note: In flow cytometry, cells or beads pass a laser one at a time.

For assay [8], the system named is MP1 cells. Nature of the assay: Tumor xenograft in immuno-compromised mice. It counts as in vivo. As to the method: Mice and treatments. To produce tumor xenografts, 5×10^6 cells derived from either monolayer cultures or GMSC expanded spheres were dissociated with Accutase, resuspended in PBS, and injected subcutaneously in the flanks of female balb athymic mice. Once detectable tumors started to form, their sizes were measured with a caliper in three dimensions and mice were randomized in the different treatment groups. […] Cisplatin was administered at 26 mg/kg every three or four days. AZD9291 was administered at 25/mg/Kg every 3 days. Serial measurements were made every day after the identification of the initial tumor mass to determine growth curves in vivo. Tumor volume was calculated using the formula for a prolate spheroid: volume=[…], where a is the width and b is the length. All animals were sacrificed when the tumors exceeded 1.5 cm. At the completion of experiments, tumors were excised, weighed, and the statistical significances of differences in tumor volume were assessed. Animals were monitored once a week for the presence of signs of disease, particularly neurological disturbances or weight loss, and they were weighed periodically.
Statistics. For the animal studies, power calculations for each treatment group were first determined. The number of animals was calculated to detect a 50% difference at alpha=0.05 and power=0.8. Statistical significance was assessed using both unpaired, two-tailed Student t test, and analysis of variance (ANOVA). Significant differences are indicated using the standard […] scale (P<0.05, significant; P<0.01, highly significant; P<0.001, extremely significant).

Assay [9] deals with H1299 cells. Kind of assay: Glycolysis: ECAR (Seahorse) and lactic acid levels. It counts as cell-based, human. To be noted: sphere-grown CSCs (FIG. 11C). On the procedure:
Cells, reagents, antibodies, primers. The H1299 cell lines and other cell lines employed in this study were obtained from ATCC or from the tissue culture core facility at LCCC. Cells were grown in Dulbecco's Modified Eagle's Medium (DMEM, 25 mM glucose, with glutamine and pyruvate from Invitrogen; Carlsbad, CA) and supplemented with 10% fetal calf serum (FCS). […] The SLC25A1 specific shRNA vectors were purchased from Sigma. The vector expressing human SLC25A1 untagged or Flag-Myc epitope tagged were from Origene; Rockville, MD (#SC120727 and RC200657, respectively). The anti-SLC25A1 antibody used in immuno-blot was from Santa Cruz Biotech, #sc-86392 employed at 1:1000 dilution. Citrate, lactate, and PFK measurements were performed by using commercially available kits (Biovision (Milpitas, CA)).
as §2, §3

The structures appear in SMILES notation.

Chain of SLC25A1 (P53007 14-311): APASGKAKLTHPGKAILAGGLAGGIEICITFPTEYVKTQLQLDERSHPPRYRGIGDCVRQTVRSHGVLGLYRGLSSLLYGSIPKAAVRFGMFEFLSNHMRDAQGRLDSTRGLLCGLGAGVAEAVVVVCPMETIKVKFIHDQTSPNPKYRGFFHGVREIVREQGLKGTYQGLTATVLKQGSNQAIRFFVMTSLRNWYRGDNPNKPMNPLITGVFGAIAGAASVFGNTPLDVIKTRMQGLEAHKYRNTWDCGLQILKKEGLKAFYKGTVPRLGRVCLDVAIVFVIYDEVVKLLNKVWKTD

With `O=C(O)CCCCC(CCSCc1ccccc1)SCc1ccccc1` (stereo not shown) [CPI-613], the “activity in spheres versus 2D/monolayer cultures” value in [1] (sphere forming assay compared with monolayer) is reported as “more effective in sphere forming assays than in monolayer cultures”. Also, the “anti-proliferative activity, ranges of concentrations” value in assay [2] (monolayer or methylcellulose single cells (FIG. 3J)) is given as “anti-proliferative activity at comparable ranges of concentrations”.
In general, Kd refers to a measure of binding affinity in units of concentration. As to `O=C(O)c1ccc(Cl)c(S(=O)(=O)Nc2cccc([N+](=O)[O-])c2)c1` [CTPI-1], in [3], the Kd came to 63.6 µM. In [1] (human cells (FIGS. 2A and 2E)), the “growth inhibitory activity, range of concentrations” value is “millimolar range of concentrations”. Further, the sphere forming capacity entry in assay [1] (one week after treatment, BTA 2 mM, CTPI 1 mM (FIG. 9F)) is reported as “reduced sphere forming capacity”.
In the case of `N.N.[Cl][Pt][Cl]` [cisplatin, reference compound], the “mitochondrial respiration after chronic drug treatment” value in [4] is given as “dramatic shift towards mitochondrial respiration”. The “response to drug (viability)” value in [5] and in [6] was “minimal response” throughout. For the same compound, in assay [7], the apoptosis entry is given as “did not induce apoptosis”. Also, the “stem cell markers in tumors (immuno-blot)” value in assay [8] (GMSC-derived tumors (FIG. 7F)) is listed as “enhanced”. Further, the “tumor growth, cisplatin alone” value in assay [8] (cisplatin 3 mg/Kg every three days (FIG. 7D)) was “inhibition of tumor growth but this effect was lost over time”. Also, the “time until most tumors restarted to grow” value in assay [8] (cisplatin alone) is recorded as “two”.
In the case of `CN(C)C(=N)N=C(N)N` [metformin], the self-renewal entry in assay [1] is “significantly reduced self-renewal”. Further, the “anti-proliferative activity in 2D cultures” value in assay [2] is listed as “no anti-proliferative activity”. Also, in assay [9], the glycolytic rates entry is “enhanced glycolytic rates”.
With `CC[C@H]1/C=C/C=C/C[C@@H](C)[C@H](O)[C@@](C)(O)C(=O)[C@@H](C)[C@H](O)[C@@H](C)C(=O)[C@@H](C)[C@H](O)[C@@H](C)/C=C/C(=O)O[C@@H]2[C@H](C)[C@H](CC1)O[C@]1(CC[C@H](C)[C@H](C[C@@H](C)O)O1)[C@H]2C` [oligomycyn, oligomycin], the self-renewal entry in assay [1] is on record as “significantly reduced self-renewal”. For the same compound, the “anti-proliferative activity in 2D cultures” value in assay [2] is recorded as “no anti-proliferative activity”.
Take `C=C(C)[C@H]1Cc2c(ccc3c2O[C@@H]2COc4cc(OC)c(OC)cc4[C@@H]2C3=O)O1` [rotenone]: in assay [1], the self-renewal result was “significantly reduced self-renewal”. In assay [2], the “anti-proliferative activity in 2D cultures” value is recorded as “no anti-proliferative activity”.
